These molecules were tested on HT29 human colorectal adenocarcinoma cell line (assay: cell proliferation assay (Cell Titer-Glo luminescent cell viability assay)). Conditions: HT-29, 72 h, read-out: pIC50 (converted).
Assay type: cell-based
Protocol: The cell culture and proliferation assay may be carried out as follows: the HT29 human colorectal adenocarcinoma cell line (ATCC, USA) was maintained in Dulbecco's Modified Eagle's Medium (Invitrogen, USA) supplemented with 10% fetal bovine serum (JRH, USA). The cell proliferation assay was carried out with the Cell Titer-Glo luminescent cell viability assay (Promega, USA) according to the manufacture's instruction after the 72 hr treatment of the cells in the presence of the compounds. The cell viability was shown as a percentage of DMSO treated cells.

Structure (SMILES) | IC50 [nM]
COc1cc(C(=O)NC2CCN(C)CC2)ccc1Nc1ncc2c(n1)N(C1CCCC1)CC1(CCC1)C(=O)N2C [Compound 179, 4-(9′-Cyclopentyl-5′-methyl-6′-oxo-5′,6′,8′,9′-tetrahydrospiro[cyclobutane-1,7′-pyrimido[4,5-b][1,4]diazepine]-2′-ylamino)-3-methoxy-N-(1-methylpiperidin-4-yl)benzamide] | < 1

Same assay, conditions: HT-29, cell proliferative assay, HT29 cells, 72 hr treatment, values given as ranges, read-out: pIC50 (converted)

Structure (SMILES) | IC50 [nM]
COc1cc(C(=O)N[C@H]2CCCNC2)ccc1Nc1ncc2c(n1)N(C1CCCC1)CC1(CCC1)C(=O)N2C [Compound 182, (S)-4-(9′-cyclopentyl-5′-methyl-6′-oxo-5′,6′,8′,9′-tetrahydrospiro[cyclobutane-1,7′-pyrimido[4,5-b][1,4]diazepine]-2′-ylamino)-3-methoxy-N-(piperidin-3-yl)benzamide] | 1 to 2.51
COc1cc(C(=O)NC2CCCNCC2)ccc1Nc1ncc2c(n1)N(C1CCCCC1)CC(C)(C)C(=O)N2C (stereo not drawn) [Compound 119, N-(azepan-4-yl)-4-(9-cyclohexyl-5,7,7-trimethyl-6-oxo-6,7,8,9-tetrahydro-5H-pyrimido[4,5-b][1,4]diazepin-2-ylamino)-3-methoxybenzamide] | 3.16 to 10
COc1cc(C(=O)NCCN(C)C)ccc1Nc1ncc2c(n1)N(C1CCCC1)CC(C)(C)C(=O)N2C [Compound 92, 4-(9-cyclopentyl-5,7,7-trimethyl-6-oxo-6,7,8,9-tetrahydro-5H-pyrimido[4,5-b][1,4]diazepin-2-ylamino)-N-(2-(dimethylamino)ethyl)-3-methoxybenzamide] | 3.16 to 10
COc1cc(C(=O)N[C@@H]2CCCNC2)ccc1Nc1ncc2c(n1)N(C1CCCCC1)CC1(CC1)C(=O)N2C [Compound 175, (R)-4-(9′-cyclohexyl-5′-methyl-6′-oxo-5′,6′,8′,9′-tetrahydrospiro [cyclopropane-1,7′-pyrimido[4,5-b][1,4]diazepine]-2′-ylamino)-3-methoxy-N-(piperidin-3-yl)benzamide] | < 1
C=CCC1(C)CN(C2CCCC2)c2nc(Nc3ccc(C(=O)NC4CCN(C)CC4)cc3OC)ncc2N(C)C1=O (stereo not drawn) [Compound 221, 4-(7-allyl-9-cyclopentyl-5,7-dimethyl-6-oxo-6,7,8,9-tetrahydro-5H-pyrimido[4,5-b][1,4]diazepin-2-ylamino)-3-methoxy-N-(1-methylpiperidin-4-yl)benzamide] | 1 to 2.51
C#CCC1CN(C2CCCC2)c2nc(Nc3ccc(C(=O)NC4CCN(C)CC4)cc3OC)ncc2N(C)C1=O (stereo not drawn) [Compound 209] | 1 to 2.51
C=CCC1CN(C2CCCCC2)c2nc(Nc3ccc(C(=O)N[C@H]4CCN(C)C4)cc3OC)ncc2N(C)C1=O (stereo partly drawn) [Compound 229, 4-(7-allyl-9-cyclohexyl-5-methyl-6-oxo-6,7,8,9-tetrahydro-5H-pyrimido[4,5-b][1,4]diazepin-2-ylamino)-3-methoxy-N-((S)-1-methylpyrrolidin-3-yl)benzamide] | 1 to 2.51
CC[C@@]1(C)CN(C2CCCC2)c2nc(Nc3ccc(C(=O)NN4CCN(C)CC4)cc3OC)ncc2N(C)C1=O [Compound 133, (S)-4-(9-cyclopentyl-7-ethyl-5,7-dimethyl-6-oxo-6,7,8,9-tetrahydro-5H-pyrimido[4,5-b][1,4]diazepin-2-ylamino)-3-methoxy-N-(4-methylpiperazin-1-yl)benzamide] | > 10
CCC#CCC1CN(C2CCCC2)c2nc(Nc3ccc(C(=O)NC4CCN(C)CC4)cc3OC)ncc2N(C)C1=O (stereo not drawn) [Compound 219, 4-(9-cyclopentyl-5-methyl-6-oxo-7-(pent-2-ynyl)-6,7,8,9-tetrahydro-5H-pyrimido[4,5-b][1,4]diazepin-2-ylamino)-3-methoxy-N-(1-methylpiperidin-4-yl)benzamide] | 3.16 to 10
COc1cc(C(=O)NC2CCN(C)CC2)ccc1Nc1ncc2c(n1)N(C(C)C)CC(C)(C)C(=O)N2C [Compound 155, 4-(9-isopropyl-5,7,7-trimethyl-6-oxo-6,7,8,9-tetrahydro-5H-pyrimido[4,5-b][1,4]diazepin-2-ylamino)-3-methoxy-N-(1-methylpiperidin-4-yl)benzamide] | 3.16 to 10
CCOc1cc(C(=O)NC2CCN(C)CC2)ccc1Nc1ncc2c(n1)N(C1CCCC1)CC(C)(C)C(=O)N2C [Compound 123, 4-(9-cyclopentyl-5,7,7-trimethyl-6-oxo-6,7,8,9-tetrahydro-5H-pyrimido[4,5-b][1,4]diazepin-2-ylamino)-3-ethoxy-N-(1-methylpiperidin-4-yl)benzamide] | < 1
COc1cc(C(N)=O)ccc1Nc1ncc2c(n1)N(C1CCCC1)CC(C)(C)C(=O)N2C [Compound 107, 4-(9-cyclopentyl-5,7,7-trimethyl-6-oxo-6,7,8,9-tetrahydro-5H-pyrimido[4,5-b][1,4]diazepin-2-ylamino)-3-methoxybenzamide] | 3.16 to 10

Second part, the molecule after the results:

IC50 [nM] | Structure (SMILES)
3.16 to 10 | COc1cc(C(=O)NC2CCOCC2)ccc1Nc1ncc2c(n1)N(C1CCCC1)CCC(=O)N2C [Compound 42, 4-(9-cyclopentyl-5-methyl-6-oxo-6,7,8,9-tetrahydro-5H-pyrimido[4,5-b][1,4]diazepin-2-ylamino)-3-methoxy-N-(tetrahydro-2H-pyran-4-yl)benzamide]
> 10 | COc1cc(C(=O)NC2CCN(C(=O)C3CC3)CC2)ccc1Nc1ncc2c(n1)N(C1CCCC1)CCC(=O)N2C [Compound 73]
> 10 | COc1cc(C(=O)NC[C@H]2CCCNC2)ccc1Nc1ncc2c(n1)N(C1CCCC1)CCC(=O)N2C [Compound 64, (S)-4-(9-cyclopentyl-5-methyl-6-oxo-6,7,8,9-tetrahydro-5H-pyrimido[4,5-b][1,4]diazepin-2-ylamino)-3-methoxy-N-(piperidin-3-ylmethyl)benzamide]
1 to 2.51 | COc1cc(C(=O)N[C@H]2CC[C@H](O)CC2)ccc1Nc1ncc2c(n1)N(C1CCCC1)CC(C)(C)C(=O)N2C [Compound 103, 4-(9-cyclopentyl-5,7,7-trimethyl-6-oxo-6,7,8,9-tetrahydro-5H-pyrimido[4,5-b][1,4]diazepin-2-ylamino)-N-((1R,4R)-4-hydroxycyclohexyl)-3-methoxybenzamide]
> 10 | CNCCNC(=O)c1ccc(Nc2ncc3c(n2)N(C2CCCC2)CCC(=O)N3C)c(OC)c1 [Compound 59, 4-(9-cyclopentyl-5-methyl-6-oxo-6,7,8,9-tetrahydro-5H-pyrimido[4,5-b][1,4]diazepin-2-ylamino)-3-methoxy-N-(2-(methylamino)ethyl)benzamide]
1 to 2.51 | COc1cc(C(=O)N[C@H]2CCN(C)C2)ccc1Nc1ncc2c(n1)N(C1CCCC1)CC(C)(C)C(=O)N2C [Compound 97, (S)-4-(9-cyclopentyl-5,7,7-trimethyl-6-oxo-6,7,8,9-tetrahydro-5H-pyrimido[4,5-b][1,4]diazepin-2-ylamino)-3-methoxy-N-(1-methylpyrrolidin-3-yl)benzamide]
3.16 to 10 | CCC1(C)CN(C2CCCCC2)c2nc(Nc3ccc(C(=O)NC4CN(C)C4)cc3OC)ncc2N(C)C1=O (stereo not drawn) [Compound 140, 4-(9-cyclohexyl-7-ethyl-5,7-dimethyl-6-oxo-6,7,8,9-tetrahydro-5H-pyrimido[4,5-b][1,4]diazepin-2-ylamino)-3-methoxy-N-(1-methylazetidin-3-yl)benzamide]
3.16 to 10 | COc1cc(C(=O)NC2CC(C)(C)N(C)C(C)(C)C2)ccc1Nc1ncc2c(n1)N(C1CCCC1)CCC(=O)N2C [Compound 80, 4-(9-cyclopentyl-5-methyl-6-oxo-6,7,8,9-tetrahydro-5H-pyrimido[4,5-b][1,4]diazepin-2-ylamino)-3-methoxy-N-(1,2,2,6,6-pentamethylpiperidin-4-yl)benzamide]
> 10 | COc1cc(C(=O)N[C@H]2CCNC2)ccc1Nc1ncc2c(n1)N(C1CCCC1)CCC(=O)N2C [Compound 40, (S)-4-(9-cyclopentyl-5-methyl-6-oxo-6,7,8,9-tetrahydro-5H-pyrimido[4,5-b][1,4]diazepin-2-ylamino)-3-methoxy-N-(pyrrolidin-3yl)benzamide]
> 10 | COc1cc(C(=O)NC2CCN(C(C)C)CC2)ccc1Nc1ncc2c(n1)N(C1CCCC1)CCC(=O)N2C [Compound 77, 4-(9-cyclopentyl-5-methyl-6-oxo-6,7,8,9-tetrahydro-5H-pyrimido[4,5-b][1,4]diazepin-2-ylamino)-N-(1-isopropylpiperidin-4-yl)-3-methoxybenzamide]
> 10 | COc1cc(C(=O)NC[C@@H]2CCCNC2)ccc1Nc1ncc2c(n1)N(C1CCCC1)CCC(=O)N2C [Compound 63, (R)-4-(9-cyclopentyl-5-methyl-6-oxo-6,7,8,9-tetrahydro-5H-pyrimido[4,5-b][1,4]diazepin-2-ylamino)-3-methoxy-N-(piperidin-3-ylmethyl)benzamide]
1 to 2.51 | COc1cc(C(=O)NC2CCN(S(C)(=O)=O)CC2)ccc1Nc1ncc2c(n1)N(C1CCCC1)CC(C)(C)C(=O)N2C [Compound 91, 4-(9-cyclopentyl-5,7,7-trimethyl-6-oxo-6,7,8,9-tetrahydro-5H-pyrimido[4,5-b][1,4]diazepin-2-ylamino)-3-methoxy-N-(1-(methylsulfonyl)piperidin-4-yl)benzamide]
3.16 to 10 | COc1cc(C(=O)N[C@H]2CCCN(C)C2)ccc1Nc1ncc2c(n1)N(C1CCCC1)CCC(=O)N2C [Compound 54, (S)-4-(9-cyclopentyl-5-methyl-6-oxo-6,7,8,9-tetrahydro-5H-pyrimido[4,5-b][1,4]diazepin-2-ylamino)-3-methoxy-N-(1-methylpiperidin-3-yl)benzamide]
3.16 to 10 | COc1cc(C(=O)NC2CCN(C)CC2)ccc1Nc1ncc2c(n1)N(C1CCC1)CC(C)(C)C(=O)N2C [Compound 153, 4-(9-cyclobutyl-5,7,7-trimethyl-6-oxo-6,7,8,9-tetrahydro-5H-pyrimido[4,5-b][1,4]diazepin-2-ylamino)-3-methoxy-N-(1-methylpiperidin-4-yl)benzamide]
